Measured values reported in US20160237398A1, “METHODS OF MICROBIAL PRODUCTION OF EXCRETED PRODUCTS FROM METHANE AND RELATED BACTERIAL STRAINS” (UNIVERSITY OF WASHINGTON THROUGH ITS CENTER FOR …, priority 2013, published 2016).

Legend:
[1] = system: pyruvate kinase (pyk2, MALCv4_3080); assay: Effect of effectors on activity of purified recombinant pyruvate kinase; format: biochemical, Methylomicrobium alcaliphilum 20Z; details: for Relative activity: control without effector = 100; for stimulation of enzyme activity: in the presence of the RuMP pathway intermediate
Description: Methanotrophic pyruvate kinase-purification and characterization.
(§1) Protein purification and characterization. Activities of key enzymes of the central metabolic pathways were measured as described. Pyruvate forming activity in cell-free extracts of M. alcaliphilus 20Z was also measured using Pyruvate Assay Kit (BioVision Inc. CA, USA). Recombinant pyruvate kinase PK-ubiqitin-His6 (“His6” disclosed as SEQ ID NO: 7) was obtained by cloning of the pyk2 gene (MALCv4_3080) in the vector pHUE and expressing in E. coli BL21 (DE3) cells growing in the presence of 0.5 mM IPTG for 5 hours at 37° C. PK-ubiqitin-His6 enzyme (“His6” disclosed as SEQ ID NO: 7) was purified by affinity chromatography on a Ni^2+-NTA column as described earlier.

[2] = target: pyruvate kinase 2 from M. alcaliphilum 20Z (Methylotuvimicrobium alcaliphilum, UniProt G4T2L7); format: biochemical, Methylomicrobium alcaliphilum 20Z; details: in the presence of 2.5 mM ribose-5-phosphate; read-out: S0.5 (used in place of Km, non Michaelis-Menten)
pyruvate kinase 2 from M. alcaliphilum 20Z, sequence (G4T2L7 entry or part of it): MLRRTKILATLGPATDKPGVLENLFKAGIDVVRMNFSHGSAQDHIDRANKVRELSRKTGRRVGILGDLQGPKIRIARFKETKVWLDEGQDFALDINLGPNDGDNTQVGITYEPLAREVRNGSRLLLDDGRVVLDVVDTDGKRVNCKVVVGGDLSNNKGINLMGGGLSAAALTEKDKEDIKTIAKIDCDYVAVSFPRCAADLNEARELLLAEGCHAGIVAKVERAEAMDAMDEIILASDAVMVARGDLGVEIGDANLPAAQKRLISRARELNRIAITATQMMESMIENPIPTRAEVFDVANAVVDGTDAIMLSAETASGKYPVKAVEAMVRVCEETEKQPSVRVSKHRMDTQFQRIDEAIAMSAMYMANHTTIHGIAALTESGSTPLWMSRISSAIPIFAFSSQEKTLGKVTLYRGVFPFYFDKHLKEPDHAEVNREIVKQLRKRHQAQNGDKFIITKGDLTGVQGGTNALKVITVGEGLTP
Description: as §1

[3] = system: 20ZER; assay: Accumulation of extracellular metabolites by the culture with an inhibitor of the cyt bc complex; format: cell-based, Methylomicrobium alcaliphilum; details: 20ZER + antimycin, dO2 ^ 40%
Description: Cultivation and growth parameters. M. alcaliphilum 20Z cells were grown using a mineral salts medium in either closed vials (50 ml culture in 250 ml vials, with shaking at 200 rpm) or bioreactor cultures (fed-batch or chemostat; 1 L working volume in a two liter bench top BioFlo™ 110 modular bioreactors, New Brunswick Scientific, Edison, N.J.). Cells were grown at 28-30° C. Optical density of cell cultures was measured on a Beckman DU® 640B spectrophotometer in plastic 1.5 mL cuvettes with a 1 cm path length. Chemostat cultures maintained a steady-state optical density at 600 nm (OD600) of approximately 2.0±0.2. […] Samples of inflow and outflow gases were either collected daily in triplicates for gas analysis or were analyzed immediately every 15 minutes using a SRI 8610C™ Gas Chromatograph connected to a bioreactor unit. The rates of methane consumption and H2 production were determined by incubating cell samples (50 ml, OD600 between 2 and 4) in closed 250 ml vials for 12-60 h at 28° C. […]

Compound: O=C(O)[C@@H](CO)OP(=O)(O)O [2-phosphoglycerate]
- Relative activity ([1]; effector 2 mM): 75%

Compound: Nc1ncnc2c1ncn2[C@@H]1O[C@H](COP(=O)(O)O)[C@@H](O)[C@H]1O [AMP]
- Relative activity ([1]; effector 2 mM): 126%

Compound: Nc1ncnc2c1ncn2[C@@H]1O[C@H](COP(=O)(O)OP(=O)(O)OP(=O)(O)O)[C@@H](O)[C@H]1O [ATP]
- effect on enzyme activity [1]: strongly inhibited
- Relative activity ([1]; effector 0.5 mM): 64%
- Relative activity ([1]; effector 1 mM): 32%
- Relative activity ([1]; effector 2 mM): 12%

Compound: O=C(O)CC(O)(CC(=O)O)C(=O)O [Citrate]
- Relative activity ([1]; effector 1 mM): 140%

Compound: O=C[C@H](O)[C@H](O)COP(=O)(O)O [Erythrose-4-phosphate]
- Relative activity ([1]; effector 5 mM): 740%
- stimulation of enzyme activity [1]: 20 fold

Compound: O=C(COP(=O)(O)O)[C@@H](O)[C@H](O)[C@H](O)COP(=O)(O)O [Fructose-1,6-bisphosphate]
- Relative activity ([1]; effector 5 mM): 158%

Compound: O=C(COP(=O)(O)O)[C@@H](O)[C@H](O)[C@H](O)CO [Fructose-1-phosphate]
- Relative activity ([1]; effector 5 mM): 270%

Compound: O=C(CO)[C@@H](O)[C@H](O)[C@H](O)COP(=O)(O)O [Fructose-6-phosphate]
- inhibitory effect of ATP, PPi and Pi after addition of the activator [1]: completely abolished
- Relative activity ([1]; effector 5 mM): 2518%
- stimulation of enzyme activity [1]: 20 fold

Compound: O=P(O)(O)O[C@H]1O[C@H](CO)[C@@H](O)[C@H](O)[C@H]1O [Glucose-1-phosphate]
- Relative activity ([1]; effector 5 mM): 67%

Compound: O=C[C@H](O)[C@@H](O)[C@H](O)[C@H](O)COP(=O)(O)O [Glucose-6-phosphate]
- Relative activity ([1]; effector 5 mM): 2545%
- stimulation of enzyme activity [1]: 20 fold

Compound: O=C(O)CC(O)C(=O)O (centres unmarked) [Malate]
- Relative activity ([1]; effector 1 mM): 82%

Compound: [Cl-].[Cl-].[Mg+2] [MgCl2]
- Km [2]: 1990 µM

Compound: O=P(O)(O)OP(=O)(O)O [PPi, pyrophosphate]
- effect on enzyme activity [1]: strongly inhibited
- Relative activity ([1]; effector 2 mM): 14%

Compound: O=P(O)(O)O [Pi, inorganic phosphate]
- effect on enzyme activity [1]: strongly inhibited
- Relative activity ([1]; effector 6 mM): 11%

Compound: O=P(O)(O)O[C@H]1O[C@H](CO)[C@@H](O)[C@H]1O [Ribose-1-phosphate]
- Relative activity ([1]; effector 5 mM): 92%

Compound: O=C[C@H](O)[C@H](O)[C@H](O)COP(=O)(O)O [Ribose-5-phosphate]
- inhibitory effect of ATP, PPi and Pi after addition of the activator [1]: completely abolished
- Relative activity ([1]; effector 5 mM): 2092%
- stimulation of enzyme activity [1]: 20 fold

Compound: O=C(CO)[C@H](O)[C@H](O)COP(=O)(O)O [Ribulose-5-phosphate]
- Relative activity ([1]; effector 5 mM): 1890%
- stimulation of enzyme activity [1]: 20 fold

Compound: N[C@@H](CO)C(=O)O [Serine]
- Relative activity ([1]; effector 1 mM): 133%

Compound: antimycin A
- Accumulation of extracellular Acetate [3]: 3955 ± 230 μmol L^−1 g^−1 CDW
- Accumulation of extracellular Lactate [3]: 437 ± 30 μmol L^−1 g^−1 CDW
